Assay results: PMC9145755, “A Small Peptide Increases Drug Delivery in Human Melanoma Cells” (Pharmaceutics, 2022)
Where a SMILES comes first, the peptide text is derived from it. [ ]: non-standard residue; d: D form. Nle = CCCC[C@H](N)C(=O)O

What was measured:
[1] = system: A375 melanoma cells; assay: In vitro cytotoxicity, MTT colorimetric assay; assay type: cell-based, human
Method: Cells were seeded in a 96-well plate and allowed to adhere overnight prior to adding the compound [29]. After 72 h of treatment in serum-free media, an MTT solution was added to each well to give a final concentration of 0.5 mg/mL and was incubated for 3 h. Formed crystals were solubilized, and their absorbance was measured at 595 nm.

[2] = Serum stability (human serum, RP-HPLC); assay type: in vitro ADME; settings: human serum incubation, 37 °C, data not shown
Method: Human serum (250 µL) was thawed to room temperature and was added to DMEM media (650 µL). The mixture was kept in a 37 °C incubator to mimic human body temperature for 15 min. The peptide (100 µL, 1 mM) was dissolved (dispersed) in sterile water. The peptide solution was added to the pre-warmed human serum and DMEM mixture. The mixture was incubated at 37 °C. At different time points (0, 0.5, 1, 5, and 24 h) aliquots (100 µL) were removed and added to methanol (200 µL). Each time point sample was kept at 4 °C for 5 min, and then was centrifuged at 500× g for 15 min to separate serum proteins. The supernatant was injected into the RP-HPLC, and the major peaks were collected. The peak’s mass was determined using MALDI-TOF mass analysis. The serum stabilities of the D-aa KK-11 were determined by comparing the HPLC peaks (AUC) for the intact peptides at different time points.

[3] = system: A375 human melanoma xenograft; assay: In vivo xenograft melanoma mouse model; settings: KK-11 alone, in vivo studies
Method: The study was carried out in compliance with the ARRIVE guidelines. All the animal studies and procedures were approved by the IACUC at Chapman University and conducted in compliance with the policies of Chapman University, in addition to those of federal, state, and local animal welfare authorities. Nude mice (NU/NU) were purchased from Charles River (Wilmington, MA, USA) and were housed and maintained in the Chapman University vivarium under pathogen-free conditions. A375 cells were suspended in cold Matrigel and injected subcutaneously into the flank of each mouse (1 × 10^6 cells per mouse) to establish tumors. The mice were treated by tail vein injections of 1× PBS, D-aa KK-11 alone (1.75 mg/kg), MAC-3-190 (5 mg/kg) alone, or D-aa KK-11 and MAC-3-190 co-treatment for 21 days. For the co-treatment, the solution of D-aa KK-11 and MAC-3-190 (1:11 molar ratio) was mixed gently and incubated at room temperature for 30 min before tail vein injection. The growth of the tumors was monitored three times a week and measured using digital Vernier calipers. The tumor volume (mm^3) was calculated as [Length × (Width^2)]/2 (in mm). The mice were sacrificed after 21 days per IACUC policy when the control group’s average tumor size reached 2000 mm^3. Tumor xenografts were removed and weighed.

[4] = system: athymic nude mice bearing human melanoma A375 tumors; assay: In vivo and ex vivo imaging (biodistribution) in mice bearing A375 tumors; settings: 8 µg per mouse
Method: The study was carried out in compliance with Animal Research: Reporting of In Vivo Experiments (ARRIVE) guidelines. All the animal procedures were approved by the Institutional Animal Care and Use Committee (IACUC) at Chapman University and conducted in compliance with the policies of Chapman University, in addition to those of federal, state, and local animal welfare authorities. Male and female athymic nude mice (4–6 weeks old) were kept (5 in each cage) in a pathogen-free environment. Approximately 1 million human melanoma A375 cells (0.1 mL in normal saline), mixed with 0.1 mL cold Matrigel (#354248; Corning, Corning, NY, USA), were injected subcutaneously into the flank. The tumor size was measured with a caliper, and body weight was recorded once a week. When the tumor size reached approximately 800–1000 mm^3, as calculated using the following formula: [Length × (Width^2)]/2 (in mm), mice were processed for in vivo or ex vivo imaging.
For in vivo imaging, normal saline or VivoTag-KK-11 at a dose of 8 µg per mouse was injected into the mice via the tail vein (n = 2 for each time point). The animals were then scanned at different time intervals (0.5, 2, 6, and 24 h) using an IVIS Spectrum in vivo imaging system (PerkinElmer, Waltham, MA, USA). The mice were imaged for 0.5 s, 10 bin, level B at an emission wavelength of 688 ± 5 nm. Imaging was limited to no more than once a day and was conducted under continuously maintained isoflurane. Mice were maintained on alfalfa-free diets to minimize the background fluorescence. All the study animals survived through the in vivo imaging procedure.
For ex vivo imaging at defined time intervals (5, 15, 30 min, followed by 1, 1.5, 2, 3, 4, 6, 24, and 48 h) following fluorescence conjugate injection, animals were euthanized via carbon dioxide inhalation (n = 2 for each time point); tumor, liver, spleen, heart, lungs, brain, and kidneys were collected and briefly rinsed with saline. The organs were then imaged for 0.5 s, 10 bin, level B at an emission wavelength of 688 ± 5 nm using an IVIS Spectrum imaging system.

[5] = system: human melanoma cells (wm3211, Sk-mel-28, A375); assay: In vitro cellular uptake of FITC-labeled peptides by flow cytometry; assay type: cell-based; settings: FITC-labeled peptides 0.5 and 1 µM, A375, Sk-mel-28, wm3211, compared with FITC alone
Method: The peptide (FITC-labeled) concentration was determined using a Shimadzu BioSpec-nano Micro-volume UV-Vis spectrophotometer (Shimadzu, Kyoto, Japan). Human melanoma cells (wm3211, Sk-mel-28, and A375) were incubated with FITC or FITC-labeled peptides at final concentrations of 0.5 µM and 1 µM for 2 h. After thorough washing with cold 1× PBS, the melanoma cells in a single cell suspension were collected for flow cytometry analysis (BD FACSVerse, BD Biosciences, Franklin Lakes, NJ, USA). The mean fluorescence density of 10,000 cells was analyzed and compared to that of control cells, as described previously.

[6] = system: A375 melanoma cells; assay: Fluorescence microscopy of peptide uptake; assay type: cell-based, human; settings: 0.5 µM, 30 min incubation, confocal microscopy, DAPI nuclei
Method: A375 melanoma cells were plated on coverslips and allowed to adhere overnight to 75% confluence, then incubated with 0.5 µM of FITC-KK-11 for 30 min at room temperature. After treatment, cells were washed three times in 1× PBS then fixed with 4% formaldehyde in 1× PBS for 15 min at room temperature. Fixed cells were then washed three times in 1× PBS for 5 min each, followed by curing in the dark with ProLong™ Gold Antifade Mountant with DAPI (P36935, Life Technologies Corporation, Eugene, OR, USA) for 1 h. Slides were visualized and recorded using the Nikon Eclipse Ti2-E confocal microscopy system (Nikon, Melville, NY, USA) using green and blue filters with 60× magnification.

With `COc1cccc2c1C(=O)c1c(O)c3c(c(O)c1C2=O)C[C@@](O)(C(=O)CO)C[C@@H]3O[C@H]1C[C@H](N)[C@H](O)[C@H](C)O1` [DOX, doxorubicin, reference compound] the “Cell viability, % of control” value ([1]; A375, DOX 0.5 µM alone, 72 h, serum-free media, MTT) was 62 % of control and the “Cell viability (cells survived), % of control” value ([1]; A375, DOX 1 µM alone, 72 h, MTT) was 24%.

In the case of `CCCC[C@H](NC(=O)[C@H](Cc1c[nH]c2ccccc12)NC(=O)[C@@H]1CCCN1C(=O)[C@@H](N)C(C)C)C(=O)N[C@@H](CCC(=O)O)C(=O)N1CCC[C@H]1C(=O)N[C@@H](C)C(=O)N[C@@H](Cc1ccc(O)cc1)C(=O)N[C@@H](CCC(N)=O)C(=O)N[C@@H](CCCNC(=N)N)C(=O)N[C@@H](Cc1ccccc1)C(=O)N[C@@H](CC(C)C)C(N)=O` [KK-11] (H-VPW[Nle]EPAYQRFL-NH2), the “Time to undetectable level of intact peptide in human serum” value [2] is reported as no more than 30 min, the “Enhancement of MAC-3-190 cytotoxicity by KK-11 co-treatment” value ([1]; A375, KK-11 1 µM with MAC-3-190 at 25% IC50, 50% IC50, IC50 and 2× IC50, 72 h, MTT, vs MAC-3-190 alone) is reported as “did not observe any significant enhancement of cytotoxicity” and the “Effect of sequential KK-11 then DOX treatment on DOX cytotoxicity” value ([1]; A375, pretreated with KK-11 for 4 h, washed away, then DOX 72 h, MTT) is reported as “failed to produce any changes on DOX cytotoxicity”. For the same molecule, the “Cytotoxicity of peptide alone, in vitro” value ([1]; KK-11 alone, in vitro studies) was “No cytotoxicity” and the “Cytotoxicity of peptide alone, in vivo” value [3] was “No cytotoxicity”.

For “VivoTag-Aβ-VPWxEPAYQrFL [VivoTag-KK-11, VivoTag 680 XL labeled D-amino acid analogue of KK-11]”, the “Time post injection up to which fluorescence remained detectable in tumor xenografts, ex vivo imaging” value ([4]; IV tail vein, A375 xenograft nude mice, excised tumors, IVIS, n = 2 per time point) was 24 h, the “Time after injection by which the peptide distributed to the tumor (and lungs, heart, spleen), ex vivo imaging” value ([4]; tail vein, A375 xenograft nude mice, IVIS, n = 2 per time point) was no more than 5 min and the Brain penetration ([4]; tail vein, ex vivo organ imaging) was “no brain penetration was observed”. For the same molecule, the “Time after injection by which the peptide cleared from other organs” value ([4]; tail vein, ex vivo organ imaging (lungs, heart, spleen)) was no more than 6 h and the “Time after injection up to which the peptide was predominantly detected in kidneys” value ([4]; tail vein, ex vivo organ imaging, after 6 h) was 48 h.

In the case of “FITC-Aβ-VPWXEPAYQRFL [FITC-KK-11, KK-11 labeled with FITC at the N-terminus via β-alanine spacer]”, the “Uptake of FITC-labeled peptide by melanoma cells” value [5] is reported as “highest” and the “Cellular localisation of FITC-labeled peptide” value [6] is reported as “present in the cytoplasm”.
